Results taken from ChEMBL document CHEMBL1201862, “PubChem BioAssay data set” (2004).
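Tested at 5 concentrations; 48 h exposure; 96-well plates; endpoints linearly interpolated, else capped at highest concentration. Abbreviation: GI50, concentration required for 50% inhibition of growth.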 Active and inactive are the calls of the source. No stated cut-off is given here; in the data, active = GI50 up to about 1.1 µM and inactive = higher.

Experiments:
Assay in all cases: NCI-60 cell line screen, 48 h
M14 = system: M14
SF-268 = system: SF-268
HOP-18 = system: HOP-18
RPMI-8226 = system: RPMI-8226
MOLT-4 = system: MOLT-4
Malme-3M = system: Malme-3M
HCC 2998 = system: HCC 2998
OVCAR-3 = system: OVCAR-3
COLO 205 = system: COLO 205
UACC-62 = system: UACC-62
UACC-257 = system: UACC-257
HOP-62 = system: HOP-62
M19-MEL = system: M19-MEL
IGROV-1 = system: IGROV-1
SK-OV-3 = system: SK-OV-3
SNB-75 = system: SNB-75
SK-MEL-5 = system: SK-MEL-5
OVCAR-4 = system: OVCAR-4
NCI-H226 = system: NCI-H226
KM12 = system: KM12
CAKI-1 = system: CAKI-1
HT-29 = system: HT-29
SK-MEL-2 = system: SK-MEL-2
HCT-116 = system: HCT-116
SN12C = system: SN12C
DMS-273 = system: DMS-273
K562 = system: K562
SNB-19 = system: SNB-19
CCRF-CEM = system: CCRF-CEM
LOX IMVI = system: LOX IMVI
KM-20L2 = system: KM-20L2
SR = system: SR
DMS-114 = system: DMS-114
RXF 393 = system: RXF 393
HL-60 = system: HL-60
OVCAR-5 = system: OVCAR-5
SK-MEL-28 = system: SK-MEL-28
NCI-H522 = system: NCI-H522
HCT-15 = system: HCT-15
NCI-H460 = system: NCI-H460
EKVX = system: EKVX
LXFL 529 = system: LXFL 529
786-0 = system: 786-0
OVCAR-8 = system: OVCAR-8
TK-10 = system: TK-10
SW-620 = system: SW-620
U-251 = system: U-251
ACHN = system: ACHN
UO-31 = system: UO-31
XF498 = system: XF498
A498 = system: A498
SF-539 = system: SF-539
A549 = system: A549
DLD-1 = system: DLD-1
NCI-H23 = system: NCI-H23
SF-295 = system: SF-295
HOP-92 = system: HOP-92
SNB-78 = system: SNB-78

## COC(=O)CCC(=O)N1CC1C (stereo not drawn)
M14
  GI50: > 100 µM (inactive)
SF-268
  GI50: > 100 µM (inactive)
HOP-18
  GI50: > 100 µM (inactive)
RPMI-8226
  GI50: > 100 µM (inactive)
MOLT-4
  GI50: > 100 µM (inactive)
Malme-3M
  GI50: > 100 µM (inactive)
HCC 2998
  GI50: > 100 µM (inactive)
OVCAR-3
  GI50: > 100 µM (inactive)
COLO 205
  GI50: > 100 µM (inactive)
UACC-62
  GI50: > 100 µM (inactive)
UACC-257
  GI50: > 100 µM (inactive)
HOP-62
  GI50: > 100 µM (inactive)
M19-MEL
  GI50: > 100 µM (inactive)
IGROV-1
  GI50: > 100 µM (inactive)
SK-OV-3
  GI50: > 100 µM (inactive)
SNB-75
  GI50: > 100 µM (inactive)
SK-MEL-5
  GI50: > 100 µM (inactive)
OVCAR-4
  GI50: > 100 µM (inactive)
NCI-H226
  GI50: > 100 µM (inactive)
KM12
  GI50: > 100 µM (inactive)
CAKI-1
  GI50: > 100 µM (inactive)
HT-29
  GI50: > 100 µM (inactive)
SK-MEL-2
  GI50: > 100 µM (inactive)
HCT-116
  GI50: > 100 µM (inactive)
SN12C
  GI50: > 100 µM (inactive)
DMS-273
  GI50: > 100 µM (inactive)
K562
  GI50: > 100 µM (inactive)
SNB-19
  GI50: > 100 µM (inactive)
CCRF-CEM
  GI50: > 100 µM (inactive)
LOX IMVI
  GI50: > 100 µM (inactive)
KM-20L2
  GI50: > 100 µM (inactive)
SR
  GI50: > 100 µM (inactive)
DMS-114
  GI50: > 100 µM (inactive)
RXF 393
  GI50: > 100 µM (inactive)
HL-60
  GI50: > 100 µM (inactive)
OVCAR-5
  GI50: > 100 µM (inactive)
SK-MEL-28
  GI50: > 100 µM (inactive)
NCI-H522
  GI50: > 100 µM (inactive)
HCT-15
  GI50: > 100 µM
NCI-H460
  GI50: > 100 µM (inactive)
EKVX
  GI50: > 100 µM (inactive)
LXFL 529
  GI50: > 100 µM (inactive)
786-0
  GI50: > 100 µM (inactive)
OVCAR-8
  GI50: > 100 µM (inactive)
TK-10
  GI50: > 100 µM (inactive)
SW-620
  GI50: > 100 µM (inactive)
U-251
  GI50: > 100 µM (inactive)
ACHN
  GI50: > 100 µM (inactive)
UO-31
  GI50: > 100 µM (inactive)
XF498
  GI50: > 100 µM (inactive)
A498
  GI50: > 100 µM (inactive)
SF-539
  GI50: > 100 µM (inactive)
A549
  GI50: > 100 µM (inactive)
DLD-1
  GI50: > 100 µM (inactive)
NCI-H23
  GI50: > 100 µM (inactive)
SF-295
  GI50: > 100 µM (inactive)
HOP-92
  GI50: > 100 µM (inactive)

## COC(=O)c1cc(C)c(C)c2c1NC(=O)CNC2=O
M14
  GI50: > 100 µM (inactive)
RPMI-8226
  GI50: > 100 µM (inactive)
MOLT-4
  GI50: > 100 µM (inactive)
HCC 2998
  GI50: > 100 µM (inactive)
OVCAR-3
  GI50: > 100 µM (inactive)
COLO 205
  GI50: > 100 µM (inactive)
UACC-62
  GI50: > 100 µM (inactive)
UACC-257
  GI50: > 100 µM (inactive)
HOP-62
  GI50: > 100 µM (inactive)
M19-MEL
  GI50: > 100 µM (inactive)
IGROV-1
  GI50: > 100 µM (inactive)
SNB-75
  GI50: > 100 µM (inactive)
OVCAR-4
  GI50: > 100 µM (inactive)
KM12
  GI50: > 100 µM (inactive)
CAKI-1
  GI50: > 100 µM (inactive)
HT-29
  GI50: > 100 µM (inactive)
SK-MEL-2
  GI50: > 100 µM (inactive)
HCT-116
  GI50: > 100 µM (inactive)
SN12C
  GI50: > 100 µM (inactive)
DMS-273
  GI50: > 100 µM (inactive)
K562
  GI50: > 100 µM (inactive)
CCRF-CEM
  GI50: > 100 µM (inactive)
KM-20L2
  GI50: > 100 µM (inactive)
SR
  GI50: > 100 µM (inactive)
DMS-114
  GI50: > 100 µM (inactive)
RXF 393
  GI50: > 100 µM (inactive)
HL-60
  GI50: > 100 µM (inactive)
SK-MEL-28
  GI50: > 100 µM (inactive)
HCT-15
  GI50: > 100 µM
NCI-H460
  GI50: > 100 µM (inactive)
EKVX
  GI50: > 100 µM (inactive)
LXFL 529
  GI50: > 100 µM (inactive)
786-0
  GI50: > 100 µM (inactive)
OVCAR-8
  GI50: > 100 µM (inactive)
SW-620
  GI50: > 100 µM (inactive)
U-251
  GI50: > 100 µM (inactive)
ACHN
  GI50: > 100 µM (inactive)
UO-31
  GI50: 33.5 µM (inactive)
SNB-78
  GI50: > 100 µM (inactive)
XF498
  GI50: > 100 µM (inactive)
A498
  GI50: > 100 µM (inactive)
SF-539
  GI50: > 100 µM (inactive)
A549
  GI50: > 100 µM (inactive)
DLD-1
  GI50: > 100 µM (inactive)
NCI-H23
  GI50: > 100 µM (inactive)
SF-295
  GI50: > 100 µM (inactive)
